Experimental data: patent US20230066946A1, “1,5-DIPHENYLPYRAZOLYL-3-OXYALKYL ACIDS AND 1-PHENYL-5-THIENYLPYRAZOLYL-3-OXYALKYL ACIDS AND THE USE THEREOF FOR CONTROL OF UNWANTED PLANT GROWTH” (Bayer Aktiengesellschaft, priority 2019, published 2023)

Experiments:
AMARE [1] = experiment: Post-emergence herbicidal action against AMARE; type: in vivo, Amaranthus retroflexus; settings: visual rating about 3 weeks after treatment
How it was run: (§1)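 Rates of 1280 or 320 g/ha were sprayed onto green parts of one-leaf-stage plants grown in sandy loam pots, with 0.5% additive and 600 litres per hectare water. After about 3 weeks under optimum greenhouse conditions, activity is rated visually: 100% = dead plants, 0% = as control.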

PHBPU = experiment: Post-emergence herbicidal action against PHBPU; type: in vivo, Pharbitis purpurea; settings: 320 g/ha, visual rating about 3 weeks after treatment
Protocol: (§2) [table] Seeds of mono- and dicotyledonous weed plants are placed in plastic pots in sandy loam soil (twin sowing with one species each of mono- or dicotyledonous weed plants per pot), covered with soil and cultivated in a greenhouse under controlled growth conditions. 2 to 3 weeks after sowing, the test plants are treated at the one-leaf stage. The compounds of the invention, formulated in the form of wettable powders (WP) or as emulsion concentrates (EC), are applied to the green parts of the plants as aqueous suspension or emulsion with addition of 0.5% additive at a water application rate equivalent to 600 litres per hectare. After the test plants have been kept in the greenhouse under optimum growth conditions for about 3 weeks, the activity of the preparations is rated visually in comparison to untreated controls. For example, 100% activity=the plants have died, 0% activity=like control plants. Tables 5.1-5.16 below show the effects of selected compounds of the general formula (I) according to Tables 1 to 3 on various harmful plants at an application rate corresponding to 1280 or 320 g/ha, which have been obtained by the aforementioned experimental method.

MATIN = experiment: Post-emergence herbicidal action against MATIN; type: in vivo, Matricaria inodora; settings: visual rating about 3 weeks after treatment
How it was run: as §1

VERPE [2] = experiment: Post-emergence herbicidal action against VERPE; type: in vivo, Veronica persica; settings: 320 g/ha, visual rating about 3 weeks after treatment
Protocol: as §2

VIOTR = experiment: Post-emergence herbicidal action against VIOTR; type: in vivo, Viola tricolor; settings: 320 g/ha, visual rating about 3 weeks after treatment
Protocol: as §2

ECHCG [3] = experiment: Post-emergence herbicidal action against ECHCG; type: in vivo, Echinochloa crus-galli; settings: 1280 g/ha, post-emergence at one-leaf stage, rated visually after about 3 weeks vs untreated controls
Protocol: as §2

STEME [4] = experiment: Post-emergence herbicidal action against STEME; type: in vivo, Stellaria media; settings: visual rating about 3 weeks after treatment
How it was run: as §1

SETVI [5] = experiment: Post-emergence herbicidal action against SETVI; type: in vivo, Setaria viridis; settings: 1280 g/ha, post-emergence at one-leaf stage, rated visually after about 3 weeks vs untreated controls
Protocol: as §2

AMARE [6] = experiment: Pre-emergence herbicidal action against AMARE; type: in vivo, Amaranthus retroflexus; settings: scored visually after about 3 weeks vs untreated controls; for Pre-emergence action against AMARE in %: 1280 g/ha; for Pre-emergence action at 320 g/ha against AMARE in %: 100% = plants have died, 0% = like control plants
How it was run: (§3)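 Visual percent activity (100% = plants dead, 0% = like control) scored about 3 weeks after pre-emergence treatment in greenhouse. Compounds as WP or EC, applied to covering soil surface with 0.5% additive, 600 L/ha water, at 1280 or 320 g/ha.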

ECHCG [7] = experiment: Pre-emergence herbicidal action against ECHCG; type: in vivo, Echinochloa crus-galli; settings: scored visually after about 3 weeks vs untreated controls, 100% = plants have died, 0% = like control plants
Source text: (§4) Seeds of mono- and dicotyledonous weed plants are placed in plastic pots in sandy loam soil (doubly sown with one species each of mono- or dicotyledonous weed plants per pot) and covered with soil. The compounds of the invention, formulated in the form of wettable powders (WP) or as emulsion concentrates (EC), are then applied onto the surface of the covering soil as aqueous suspension or emulsion with addition of 0.5% additive at a water application rate equivalent to 600 litres per hectare. After the treatment, the pots are placed in a greenhouse and kept under good growth conditions for the trial plants. After about 3 weeks, the effect of the preparations is scored visually in comparison with untreated controls as percentages. For example, 100% activity=the plants have died, 0% activity=like control plants. [table] Tables 4.1-4.15 below show the effects of selected compounds of the general formula (I) according to Tables 1 to 3 on various harmful plants at an application rate corresponding to 1280 or 320 g/ha, which have been obtained by the aforementioned experimental method.

SETVI [8] = experiment: Pre-emergence herbicidal action against SETVI; type: in vivo, Setaria viridis; settings: 1280 g/ha, scored visually after about 3 weeks vs untreated controls
How it was run: as §3

STEME [9] = experiment: Pre-emergence herbicidal action against STEME; type: in vivo, Stellaria media; settings: 1280 g/ha, scored visually after about 3 weeks vs untreated controls
How it was run: as §3

POLCO = experiment: Post-emergence herbicidal action against POLCO; type: in vivo, Polygonum convolvulus; settings: 320 g/ha, visual rating about 3 weeks after treatment
Protocol: as §2

VERPE [10] = experiment: Pre-emergence herbicidal action against VERPE; type: in vivo, Veronica persica; settings: 320 g/ha, scored visually after about 3 weeks vs untreated controls
Source text: as §4

COC(=O)COc1nn(-c2cccc(F)c2)c(-c2cccc(Cl)c2)c1C#N [I-038]
90%: Post-emergence action against AMARE in % (AMARE [1]; 1280 g/ha)
80%: Post-emergence action against PHBPU in % (PHBPU) | Post-emergence action against MATIN in % (MATIN; 1280 g/ha) | Post-emergence action against VERPE in % (VERPE [2])

COC(=O)COc1nn(-c2cccc(F)c2)c(-c2ccc(Cl)cc2)c1Cl [I-005]
80%: Post-emergence action against VIOTR in % (VIOTR) | Post-emergence action against AMARE in % (AMARE [1]; 320 g/ha) | Post-emergence action against AMARE in % (AMARE [1]; 1280 g/ha) | Post-emergence action against PHBPU in % (PHBPU)

CCOC(=O)COc1nn(-c2cc(F)c(F)cc2F)c(-c2cccc(F)c2)c1Cl [I-097]
100%: Post-emergence action against ECHCG in % (ECHCG [3]) | Post-emergence action against STEME in % (STEME [4]; 1280 g/ha) | Post-emergence action against MATIN in % (MATIN; 1280 g/ha) | Pre-emergence action against AMARE in % (AMARE [6]) | Pre-emergence action at 1280 g/ha against ECHCG in % (ECHCG [7]) | Pre-emergence action against SETVI in % (SETVI [8]) | Pre-emergence action against STEME in % (STEME [9])
90%: Post-emergence action against SETVI in % (SETVI [5])

COC(=O)C(C)Oc1nn(-c2ccccc2)c(-c2cc(F)cc(F)c2)c1Cl (centres unmarked) [I-165, Methyl 2-{[4-chloro-5-(3,5-difluorophenyl)-1-phenyl-1H-pyrazol-3-yl]oxy}propanoate]
80%: Post-emergence action against POLCO in % (POLCO) | Post-emergence action against VIOTR in % (VIOTR) | Post-emergence action against PHBPU in % (PHBPU) | Post-emergence action against VERPE in % (VERPE [2])
90%: Post-emergence action against SETVI in % (SETVI [5]) | Pre-emergence action at 320 g/ha against AMARE in % (AMARE [6])
100%: Post-emergence action against STEME in % (STEME [4]; 1280 g/ha) | Post-emergence action against AMARE in % (AMARE [1]; 1280 g/ha) | Post-emergence action against MATIN in % (MATIN; 1280 g/ha) | Pre-emergence action against AMARE in % (AMARE [6]) | Pre-emergence action against SETVI in % (SETVI [8]) | Pre-emergence action against STEME in % (STEME [9]) | Pre-emergence action against VERPE in % (VERPE [10])

COC(=O)COc1nn(-c2cccc(F)c2)c(-c2cccc(F)c2)c1C#N [I-047]
90%: Post-emergence action against VIOTR in % (VIOTR) | Pre-emergence action at 320 g/ha against AMARE in % (AMARE [6]) | Pre-emergence action against VERPE in % (VERPE [10])
80%: Post-emergence action against STEME in % (STEME [4]; 320 g/ha) | Post-emergence action against AMARE in % (AMARE [1]; 320 g/ha) | Post-emergence action against PHBPU in % (PHBPU) | Post-emergence action against MATIN in % (MATIN; 320 g/ha) | Post-emergence action against VERPE in % (VERPE [2])

COC(=O)COc1nn(-c2ccccc2)c(-c2ccc(Cl)cc2)c1Cl [I-004]
80%: Post-emergence action against POLCO in % (POLCO) | Post-emergence action against AMARE in % (AMARE [1]; 1280 g/ha) | Post-emergence action against PHBPU in % (PHBPU)
90%: Pre-emergence action against AMARE in % (AMARE [6])
